Assay [1] concerns N. europaea. Description: standard nitrification inhibition assay (NO2- production, Griess). Type of assay: cell-based, Nitrosomonas europaea. The conditions noted are these: [NH4+]=3 mM, [inhibitor]=0.3 mM (10 mol %), pH 7.5, 30° C., 60 min. The method, then: (§1) Cells of N. multiformis and N. europaea were cultivated to the mid-exponential growth phase (OD600=0.1, [NO2^−] approximately 800 μM) and harvested by filtration onto 0.2 μm membrane filters (Mixed Cellulose Ester (MCE), Sigma Aldrich). The cells were washed with 2×100 mL of 0.1 M sodium phosphate buffer (NaPB), containing 0.2 mM MgSO4 at pH 7.5. The cells were washed from the filter paper by transferring it to a sterile 50 mL tube and resuspending in NaPB (15 mL), followed by 5 s of vortexing (Ratek, Australia) and 3 s of sonication (Vevor, Australia). […] Experiments were performed in triplicate.
(§2) In a deep 96-well plate (2 mL capacity), 980 μL of the bacterial inoculum (OD600=0.03) was added to the inhibitor (10 μL, 30 mmol L^−1 in Milli-Q water), the solutions were mixed thoroughly and pre-incubated in the dark for 5 minutes at 100 rpm and 30° C. (NH4)2SO4 (10 μL, 150 mM, from a prepared sterile solution containing 19.8 g L^−1 (NH4)2SO4 in Milli-Q water) was then added using a multi-channel pipette. The plate was covered with a with an O2 permeable membrane to ensure aeration (Breathe-Easy® sealing membrane, Sigma Aldrich) and incubated in a temperature-regulated rotary incubator (Ratek, Australia) in the dark for 60 minutes at 30° C. and 100 rpm. An aliquot of the reaction solution ([…]) was transferred to a 96-well spectrophotometric plate to which 50 µL of Griess reagent was added. The colour was allowed to develop for 15 minutes at room temperature, and the absorbance was measured at 540 nm. Each assay was accompanied by control treatments to determine the 0% and 100% NO2 signal. The percentage inhibition was calculated according to eqn. 1 from the NO2 production of the cells in NaPB (i) without additive (‘untreated cells’: 0% signal), (ii) with [NH4^+]=3 mM (‘uninhibited’ cells: 100% signal) and (iii) with [NH4^+]=3 mM and [inhibitor]=0.3 mM and 0.03 mM (10 mol % and 1 mol % of [NH4^+], ‘inhibited cells’). Experiments were performed in triplicate.
A general note: Nitrite, measured by Griess reagent, commonly stands in for NO production.

For assay [2], the system named is N. multiformis. The assay is described as above. As to conditions: [NH4+]=3 mM, [inhibitor]=0.3 mM (10 mol %), pH 7.5, 30° C., 60 min. Type of assay: cell-based, Nitrosospira multiformis. Here is the method: as §1, §2
The subject of assay [3] is soil A. Description: soil incubation, NH4+ and NO3- in soil A. As to conditions: 5 mol % of applied fertiliser-N, 21 days. Here is the method: Soils used in these studies were air-dried, ground and sieved (2 mm) prior to use. Soil microcosm incubations were carried out in 250 mL polypropylene specimen containers (Sarstedt, Germany), containing 20 g oven dry-weight equivalent of soil. Microcosms were treated with half the volume of water required to meet the desired water-filled pore space (WFPS %) of 60% and pre-incubated at 25° C. for seven days to revive soil microbial activity. Following pre-incubation, the remaining volume to reach the WFPS % was applied as one of the treatment solutions: (1) fertiliser ((NH4)2SO4,) 100 mg kg^−1, (2) fertiliser+0.5 mol % 4-MPT, (3) fertiliser+2.5 mol % 4-MPT, (4) fertiliser+5 mol % 4-MPT or (5) fertiliser+5 mol % compound 1, with three replicates of each treatment per time interval (n=3). Throughout the incubation period soil microcosms were kept aerated by removing the lid for 10 minutes every 2-3 days to allow gas exchange, and moisture levels were replenished via addition of Milli-Q water as required. At the end of the desired incubation period (i.e., after 0, 3, 7, 14, and 21 days, respectively), soil microcosms were removed and destructively sampled by treating with 2 M aqueous potassium chloride solution (KCl, 100 mL) and shaking for 1 h. Soil-KCl solutions were filtered (Whatman No. 42), and the filtrates were stored at −20° C. until the conclusion of the experiment, when all KCl extracts were analysed for the concentration of soil mineral nitrogen from ammonium (NH4^+—N) and from nitrate (NO3^−—N; the conversion of NO2 to NO3^− in soils is very rapid) after appropriate dilutions using Segmented Flow Analysis (San++, Skalar, Breda, The Netherlands). Results are reported as the mean of three replicates, errors reported are standard errors of the mean. Errors associated with raw data were carried through calculations using standard error propagation protocols.
To determine the nitrification inhibitory effect of 4-MPT in vivo, soil incubations were performed by measuring concentration-time profiles for NH4^+ and NO3^− in an acidic Australian soil (soil A, pH=5.9) over 21 days. 4-MPT was tested at three different concentrations (0.5 mol %, 2.5 mol % and 5 mol % of applied fertiliser-N) and compared with the alkyl-substituted compound 1 (5 mol % of applied fertiliser-N) to confirm the requirement of the N-propargyl substitutent for inhibitory activity (FIG. 5).

For the molecule `C#CCCn1cc(CCC)nn1` [Compound 2], the “% Inhibition NE” value in assay [1] stood at 21 ± 2%. Moreover, the “% Inhibition NM” value in assay [2] is 40 ± 1%.
Regarding `CCCCn1cc(CCC)nn1` [Compound N013], in assay [1], the “% Inhibition NE” value came out at 60 ± 1%. Moreover, the “% Inhibition NM” value in assay [2] amounted to 54 ± 2%.
As to `CCCn1cc(C)nn1` [Compound 1, 4-Methyl-1-(n-propyl)-1H-1,2,3-triazole], in assay [1], the “% Inhibition NE” value is recorded as “complete loss of inhibitory activity”. The “% Inhibition NM” value in assay [2] is reported as “complete loss of inhibitory activity”. In assay [3], the “NH4+ loss / conversion in soil” value was “negligible levels of NH4^+ remaining after 21 days of incubation”.
In the case of `C#CCOC(=O)Cn1cc(CCC)nn1` [Compound 3], in assay [1], the “% Inhibition NE” value came out at 49 ± 2%. Moreover, the “% Inhibition NM” value in assay [2] stood at 47 ± 2%.
In the case of `C#CCNC(=O)Cn1cc(CCC)nn1` [Compound 4], the “% Inhibition NE” value in assay [1] worked out at 7.1 ± 1%.
